Reference: PMC6333442, “Conserved allosteric pathways for activation of TRPV3 revealed through engineering vanilloid-sensitivity” (eLife, 2019)

Key:
[1] = system: TRPV3-6M + L596V, L599F, S613K, D618P, S620E, I644F, Q646E, P651K, L653V, I659L or T660A; experiment: Two-electrode voltage clamp, TRPV3-6M with individual pore mutations (no RTx response); type: cell-based, mouse; conditions: RTx 100 nM, 2-APB 3 mM, room temperature
Method: (§1) All channel constructs were expressed in Xenopus laevis oocytes and studied using the two-electrode voltage clamp technique (TEVC) following 1–4 days of incubation after cRNA injection. The animal care and experimental procedures were performed in accordance with the Guide for the Care and Use of Laboratory Animals and were approved by the Animal Care and Use Committee of the National Institute of Neurological Disorders and Stroke (Animal protocol number 1253–17). Oocytes were removed surgically and incubated with agitation for 1 hr in a solution containing (in mM) 82.5 NaCl, 2.5 KCl, 1 MgCl2, 5 HEPES, pH 7.6 (with NaOH), and collagenase (2 mg/ml; Worthington Biochemical, Lakewood, NJ). Defolliculated oocytes were injected with cRNA for each of the constructs and incubated at 17°C in a solution containing (in mM) 96 NaCl, 2 KCl, 1 MgCl2, 1.8 CaCl2, 5 HEPES, pH 7.6 (with NaOH), and gentamicin (50 μg/ml, GIBCO-BRL, Gaithersburg, MD). Oocyte membrane voltage was controlled using an OC-725C oocyte clamp (Warner Instruments, Hamden, CT). Data were filtered at 1–3 kHz and digitized at 20 kHz using pClamp software (Molecular Devices, Sunnyvale, CA) and a Digidata 1440A digitizer (Axon Instruments). Microelectrode resistances were 0.1–1 MΩ when filled with 3 M KCl. For recording TRP channel currents, the external recording solution contained (in mM) 100 KCl, 10 HEPES, pH 7.6 (with KOH). […]

[2] = molecular target: T1, mouse TRPV3-4M (F522S/L557M/A560T/Q580E) (Mus musculus, UniProt Q8K424, A560T/F522S/L557M/Q580E); experiment: Two-electrode voltage clamp, TRPV3-4M in oocytes; type: cell-based; conditions: RTx 100 nM, 2-APB 3 mM, room temperature, ±60 mV
T1 construct: expressed in transfected cells; host or cells: Xenopus laevis oocytes
T1 sequence (Q8K424 1-791 F522S/L557M/A560T/Q580E): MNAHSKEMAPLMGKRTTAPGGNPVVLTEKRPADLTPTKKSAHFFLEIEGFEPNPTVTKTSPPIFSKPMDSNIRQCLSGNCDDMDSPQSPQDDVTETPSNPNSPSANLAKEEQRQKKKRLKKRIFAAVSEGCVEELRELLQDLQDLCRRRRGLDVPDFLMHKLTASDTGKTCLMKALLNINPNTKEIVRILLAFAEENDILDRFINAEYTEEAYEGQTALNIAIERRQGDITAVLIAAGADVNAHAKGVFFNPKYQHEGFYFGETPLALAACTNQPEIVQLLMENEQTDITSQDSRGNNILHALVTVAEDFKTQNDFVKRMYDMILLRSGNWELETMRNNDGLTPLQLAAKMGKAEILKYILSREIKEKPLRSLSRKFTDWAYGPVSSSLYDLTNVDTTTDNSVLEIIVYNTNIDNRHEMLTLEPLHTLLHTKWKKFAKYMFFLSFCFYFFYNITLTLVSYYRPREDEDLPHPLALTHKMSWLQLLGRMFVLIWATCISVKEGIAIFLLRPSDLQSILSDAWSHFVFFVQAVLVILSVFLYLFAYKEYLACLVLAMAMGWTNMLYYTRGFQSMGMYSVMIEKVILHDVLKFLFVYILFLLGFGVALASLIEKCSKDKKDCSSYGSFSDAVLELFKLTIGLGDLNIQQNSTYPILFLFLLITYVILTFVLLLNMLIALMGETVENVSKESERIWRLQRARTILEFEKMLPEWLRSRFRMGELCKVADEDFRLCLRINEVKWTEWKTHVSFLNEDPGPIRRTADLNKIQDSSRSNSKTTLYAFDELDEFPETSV
Method: as §1

Row | SMILES | channel activation (current response) [1] | channel activation (current response) [2]
1 | NCCOB(c1ccccc1)c1ccccc1 [2-APB, 2-aminoethoxydiphenyl borate] | still activated | activated
2 | C=C(C)[C@]12C[C@@H](C)[C@@]34O[C@](Cc5ccccc5)(O[C@@H]1[C@@H]3C=C(COC(=O)Cc1ccc(O)c(OC)c1)C[C@]1(O)C(=O)C(C)=C[C@@H]41)O2 [RTx, resiniferatoxin] | RTx-insensitive | not by 100 nM RTx
